Measurements taken from publication PMC12389269, “Heteroaryl-Capped Hydroxamic Acid Derivatives with Varied Linkers: Synthesis and Anticancer Evaluation with Various Apoptosis Analyses in Breast Cancer Cells, Including Docking, Simulation, DFT, and ADMET Studies” (Pharmaceuticals, 2025).

Tests used:
A549 cells = experiment: MTT cytotoxicity assay, A549; type: cell-based; settings: Homo sapiens, A549, 24 h
Experimental: (§1) Following an extensive review of the literature, we selected human breast cancer (MCF-7, MDA-MB-231) and lung cancer (A549) cell lines to evaluate the anticancer potential of the synthesized compounds, and some compounds with good anti-proliferation activity were again tested to evaluate their cytotoxic potential on A-549, MCF-7, and MDA-MB-231. The same were also tested on one non-cancerous/normal (HEK-293) cell line. All the cell lines for the required screening were developed in a suitable medium comprising 10% FBS and 2mM L-glutamine. Cancerous and non-cancerous/normal cell lines were selected for the cell proliferation and cytotoxicity assay and maintained with 5% CO2 at 37 °C in a CO2 incubator with 100% relative humidity for one complete day before the addition of experimental drugs.
(§2) MTT, a well-known colorimetric cytotoxic assay was performed to validate the cytotoxicity of the selected compounds—VI(b), VI(c), VI(e), and VI(i)—against three different human tumor cell lines [MCF-7, MDA-MB-231, A549] and a normal cell line [HEK293]. The seeding of 1 × 10^4 cells onto each well was executed in a 96-well plate in triplicate, and to keep the cells viable, overnight incubation was undertaken at 37 °C with 5% CO2 in a CO2 incubator. […] The microplate reader was set at 570 nm to measure the absorbance of each well.

MDA-MB-231 cells = experiment: MTT cytotoxicity assay, MDA-MB-231; type: cell-based; settings: Homo sapiens, MDA-MB-231, 24 h
Experimental: as §1, §2

## COc1ccc(-c2cnn(CCCCCC(=O)NO)n2)cc1 [VI(i), N-Hydroxy-6-(4-(4-methoxyphenyl)-2H-1,2,3-triazol-2-yl)hexanamide]
A549 cells
  IC50: > 100 µg/mL
MDA-MB-231 cells
  IC50: > 100 µg/mL
